Measured values reported in patent US20230287044A1, “NOVEL ANTIBACTERIAL PEPTIDE AND USE THEREOF” (priority 2020, published 2023).
Values after ≈ are worked out from the molar mass of the structure shown. Where two headings read alike, the source gives them in different places. Square brackets hold non-standard residues; d marks the D form. Ends that are not written are not given here. Peptide text beside a SMILES is read from it.

Assays:
[1] = Solubility of antibacterial peptides in solution; format: physicochemical
[2] = system: 30 species of Acinetobacter baumannii (A. baumannii); format: cell-based; details: for MIC50 / MIC90: against 30 species of Acinetobacter baumannii
Procedure: In addition, the results obtained by measuring the minimum inhibitory concentrations of KSH29, KSH42 and KSH43 against 30 species of Acinetobacter baumannii (A. baumannii) are shown in Table 4 below.
The minimum inhibitory concentrations (MIC) against the 30 species of Acinetobacter baumannii were measured in the following manner.
The strain 1605 was purchased from ATCC (American Type Culture Collection, USA). In addition, the strain 40203 was purchased from the Korean Culture Center of Microorganisms.
The COL^R refers to resistance to colistin, the TGC^R refers to resistance to tigecycline, and the TGC^I refers to tigecycline intermediate strains.

[3] = system: MRPA (P. aeruginosa) CCARM 2180; format: cell-based, Pseudomonas aeruginosa; details: CCARM 2180, 18 h
Procedure, shortened: (§1)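 Mid-log cultures grown in CAMHB and diluted to 1× 10^6 cfu/ml in PBS were mixed with an equal volume of peptide in CAMHB (80 µM to 0.63 µM twofold dilutions). MIC taken as the mean of three independent experiments.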

[4] = system: MRAB (A. baumannii) ATCC BAA 1605; format: cell-based, Acinetobacter baumannii
Procedure, shortened: as §1

[5] = system: MRSA (S. aureus) KCCM 40510; format: cell-based, Staphylococcus aureus
Procedure, shortened: as §1

[6] = system: VRE (E. faecalis) ATCC 51575; format: cell-based, Enterococcus faecalis
Procedure, shortened: as §1

[7] = CAMHB, 37° C., 18 hours, average of three experiments

CC[C@@H](C)[C@@H](NC(=O)[C@@H](Cc1c[nH]c2ccccc12)NC(=O)[C@H](NC(=O)[C@@H](CC(C)C)NC(=O)[C@H](N)Cc1c[nH]c2ccccc12)C(C)C)C(=O)N[C@H](Cc1c[nH]c2ccccc12)C(=O)N[C@H](CCCNC(=N)N)C(=O)N[C@H](CCCNC(=N)N)C(=O)N[C@H](CCCNC(=N)N)C(N)=O [KSH29, wlvwiwrrr] (H-[dW][dL][dV][dW][dI][dW][dR][dR][dR]-NH2; N-terminus assumed)
solubility at 12 h ([1]; aqueous buffer): ≥ 100 µM
solubility at 12 h ([1]; plasma or biological fluid): 50 µM (≈ 68.5 µg/mL)
solubility at 12 h ([1]; water): > 2000 µM
MIC ([2]; A. baumannii strain 1): 1.25 µM (≈ 1.71 µg/mL)
MIC ([2]; A. baumannii strain 6 (TGC^I)): 1.25 µM (≈ 1.71 µg/mL)
MIC ([2]; A. baumannii strain 10): 1.25 µM (≈ 1.71 µg/mL)
MIC ([2]; A. baumannii strain 14): 1.25 µM (≈ 1.71 µg/mL)
MIC ([2]; A. baumannii strain 15): 1.25 µM (≈ 1.71 µg/mL)
MIC ([2]; A. baumannii strain 16): 1.25 µM (≈ 1.71 µg/mL)
MIC ([2]; A. baumannii strain 19): 1.25 µM (≈ 1.71 µg/mL)
MIC ([2]; A. baumannii strain 22 (TGC^I)): 1.25 µM (≈ 1.71 µg/mL)
MIC ([2]; A. baumannii strain 39): 1.25 µM (≈ 1.71 µg/mL)
MIC ([2]; A. baumannii strain 44): 1.25 µM (≈ 1.71 µg/mL)
MIC ([2]; A. baumannii strain 66): 1.25 µM (≈ 1.71 µg/mL)
MIC ([2]; A. baumannii strain 68): 1.25 µM (≈ 1.71 µg/mL)
MIC ([2]; A. baumannii strain 69): 1.25 µM (≈ 1.71 µg/mL)
MIC ([2]; A. baumannii strain 71): 1.25 µM (≈ 1.71 µg/mL)
MIC ([2]; A. baumannii strain 76): 1.25 µM (≈ 1.71 µg/mL)
MIC ([2]; A. baumannii strain 82): 1.25 µM (≈ 1.71 µg/mL)
MIC ([2]; A. baumannii strain 89): 1.25 µM (≈ 1.71 µg/mL)
MIC ([2]; A. baumannii strain 102 (TGC^I)): 1.25 µM (≈ 1.71 µg/mL)
MIC ([2]; A. baumannii strain 127): 1.25 µM (≈ 1.71 µg/mL)
MIC ([2]; A. baumannii strain 141 (TGC^R)): 1.25 µM (≈ 1.71 µg/mL)
MIC ([2]; A. baumannii strain 144): 1.25 µM (≈ 1.71 µg/mL)
MIC ([2]; A. baumannii strain 147 (TGC^R)): 1.25 µM (≈ 1.71 µg/mL)
MIC ([2]; A. baumannii strain 152 (TGC^R)): 1.25 µM (≈ 1.71 µg/mL)
MIC ([2]; A. baumannii strain 10087): 1.25 µM (≈ 1.71 µg/mL)
MIC ([2]; A. baumannii strain 19606): 1.25 µM (≈ 1.71 µg/mL)
MIC ([2]; A. baumannii strain 40203 (Korean Culture Center of Microorganisms)): 1.25 µM (≈ 1.71 µg/mL)
MIC50 [2]: 1.25 µM (≈ 1.71 µg/mL)
MIC90 [2]: 1.25 µM (≈ 1.71 µg/mL)

CC(C)[C@@H](NC(=O)[C@H](N)Cc1c[nH]c2ccccc12)C(=O)N[C@@H](C(=O)N[C@H](Cc1c[nH]c2ccccc12)C(=O)N[C@@H](C(=O)N[C@@H](C(=O)N[C@H](Cc1c[nH]c2ccccc12)C(=O)N[C@H](CCCNC(=N)N)C(=O)N[C@H](CCCNC(=N)N)C(=O)N[C@H](CCCNC(=N)N)C(N)=O)C(C)C)C(C)C)C(C)C [KSH42, wvvwvvwrrr] (H-[dW][dV][dV][dW][dV][dV][dW][dR][dR][dR]-NH2; N-terminus assumed)
solubility at 12 h ([1]; aqueous buffer): ≥ 100 µM
solubility at 12 h ([1]; plasma or biological fluid): 100 µM (≈ 144 µg/mL)
solubility at 12 h ([1]; water): > 2000 µM
MIC50 [2]: 1.25 µM (≈ 1.8 µg/mL)
MIC90 [2]: 1.25 µM (≈ 1.8 µg/mL)

CC[C@H](C)[C@H](NC(=O)[C@H](Cc1c[nH]c2ccccc12)NC(=O)[C@@H](NC(=O)[C@H](CC(C)C)NC(=O)[C@@H](N)Cc1c[nH]c2ccccc12)C(C)C)C(=O)N[C@@H](Cc1c[nH]c2ccccc12)C(=O)N[C@@H](CCCNC(=N)N)C(=O)N[C@@H](CCCCN)C(=O)N[C@@H](CCCCN)C(=O)N[C@@H](CCCNC(=N)N)C(N)=O [LSH28]
MIC MRPA (P. aeruginosa) CCARM 2180 [3]: 40 µM (≈ 58.8 µg/mL)
MIC MRAB (A. baumannii) ATCC BAA 1605 ([4]; ATCC BAA 1605, 18 h): 5 µM (≈ 7.35 µg/mL)
MIC MRSA (S. aureus) KCCM 40510 ([5]; KCCM 40510, 18 h): 10 µM (≈ 14.7 µg/mL)
MIC VRE (E. faecalis) ATCC 51575 ([6]; ATCC 51575, 18 h): 10 µM (≈ 14.7 µg/mL)

CN[C@H](CC(C)C)C(=O)N[C@H]1C(=O)N[C@@H](CC(N)=O)C(=O)N[C@H]2C(=O)N[C@H]3C(=O)N[C@H](C(=O)N[C@H](C(=O)O)c4cc(O)cc(O)c4-c4cc3ccc4O)[C@H](O)c3ccc(c(Cl)c3)Oc3cc2cc(c3O[C@@H]2O[C@H](CO)[C@@H](O)[C@H](O)[C@H]2O[C@H]2C[C@](C)(N)[C@H](O)[C@H](C)O2)Oc2ccc(cc2Cl)[C@H]1O [Vancomycin, reference compound]
solubility at 12 h ([1]; aqueous buffer, PBS, peptide 25 to 200 µM, 12 hours at room temperature, read-out: Solubility in solution PBS): > 200 µM
solubility at 12 h ([1]; plasma or biological fluid, CAMHB, peptide 25 to 200 µM, 12 hours at room temperature, read-out: Solubility in solution CAMHB): > 200 µM
solubility at 12 h ([1]; water, H2O, observed for 12 hours at room temperature, read-out: Solubility in solution H2O): > 2000 µM

VWVWVWVRKKR-NH2 [LSH99]
MIC MRPA (P. aeruginosa) CCARM 2180 [3]: >40 µM
MIC MRAB (A. baumannii) ATCC BAA 1605 ([4]; ATCC BAA 1605, 18 h): 2.5 µM
MIC MRSA (S. aureus) KCCM 40510 ([5]; KCCM 40510, 18 h): >40 µM
MIC VRE (E. faecalis) ATCC 51575 ([6]; ATCC 51575, 18 h): 10 µM

WLAWLYLRKKR-NH2 [LSH8]
MIC MRPA (P. aeruginosa) CCARM 2180 [3]: >40 µM
MIC MRAB (A. baumannii) ATCC BAA 1605 ([4]; ATCC BAA 1605, 18 h): 5 µM
MIC MRSA (S. aureus) KCCM 40510 ([5]; KCCM 40510, 18 h): 20 µM
MIC VRE (E. faecalis) ATCC 51575 ([6]; ATCC 51575, 18 h): 20 µM

WLLWIALRKKR-NH2 [KSH1]
MIC MRPA (P. aeruginosa) CCARM 2180 [3]: 40 µM
MIC MRAB (A. baumannii) ATCC BAA 1605 [4, 7]: 5 µM
MIC MRSA (S. aureus) KCCM 40510 [5, 7]: 2.5 µM
MIC VRE (E. faecalis) ATCC 51575 [6, 7]: 5 µM

WLLWLYARKKR-NH2 [LSH9]
MIC MRPA (P. aeruginosa) CCARM 2180 [3]: 40 µM
MIC MRAB (A. baumannii) ATCC BAA 1605 ([4]; ATCC BAA 1605, 18 h): 5 µM
MIC MRSA (S. aureus) KCCM 40510 ([5]; KCCM 40510, 18 h): 10 µM
MIC VRE (E. faecalis) ATCC 51575 ([6]; ATCC 51575, 18 h): 10 µM

WLLWVLWRKKR-NH2 [LSH3]
MIC MRPA (P. aeruginosa) CCARM 2180 [3]: 20 µM
MIC MRAB (A. baumannii) ATCC BAA 1605 ([4]; ATCC BAA 1605, 18 h): 1.25 µM
MIC MRSA (S. aureus) KCCM 40510 ([5]; KCCM 40510, 18 h): 2.5 µM
MIC VRE (E. faecalis) ATCC 51575 ([6]; ATCC 51575, 18 h): 2.5 µM

WLLWVYVRKKR-NH2 [XSH2]
MIC MRPA (P. aeruginosa) CCARM 2180 [3]: 20 µM
MIC MRAB (A. baumannii) ATCC BAA 1605 ([4]; ATCC BAA 1605, 18 h): 1.25 µM
MIC MRSA (S. aureus) KCCM 40510 ([5]; KCCM 40510, 18 h): 25 µM
MIC VRE (E. faecalis) ATCC 51575 ([6]; ATCC 51575, 18 h): 5 µM

WLVYVWLRKKR-NH2 [LSH2]
MIC MRPA (P. aeruginosa) CCARM 2180 [3]: 20 µM
MIC MRAB (A. baumannii) ATCC BAA 1605 ([4]; ATCC BAA 1605, 18 h): 1.25 µM
MIC MRSA (S. aureus) KCCM 40510 ([5]; KCCM 40510, 18 h): 5 µM
MIC VRE (E. faecalis) ATCC 51575 ([6]; ATCC 51575, 18 h): 5 µM

WLWVWVRKKR-NH2 [LSH5]
MIC MRPA (P. aeruginosa) CCARM 2180 [3]: 40 µM
MIC MRAB (A. baumannii) ATCC BAA 1605 ([4]; ATCC BAA 1605, 18 h): 2.5 µM
MIC MRSA (S. aureus) KCCM 40510 ([5]; KCCM 40510, 18 h): 10 µM
MIC VRE (E. faecalis) ATCC 51575 ([6]; ATCC 51575, 18 h): 10 µM

WVLWVWLRKKR-NH2 [LSH1]
MIC MRPA (P. aeruginosa) CCARM 2180 [3]: 20 µM
MIC MRAB (A. baumannii) ATCC BAA 1605 ([4]; ATCC BAA 1605, 18 h): 2.5 µM
MIC MRSA (S. aureus) KCCM 40510 ([5]; KCCM 40510, 18 h): 2.5 µM
MIC VRE (E. faecalis) ATCC 51575 ([6]; ATCC 51575, 18 h): 2.5 µM

WVVWVVYRKKR-NH2 [LSH7]
MIC MRPA (P. aeruginosa) CCARM 2180 [3]: >40 µM
MIC MRAB (A. baumannii) ATCC BAA 1605 ([4]; ATCC BAA 1605, 18 h): 5 µM
MIC MRSA (S. aureus) KCCM 40510 ([5]; KCCM 40510, 18 h): 20 µM
MIC VRE (E. faecalis) ATCC 51575 ([6]; ATCC 51575, 18 h): 20 µM

WVVWVYVRKKR-NH2 [LSH6]
MIC MRPA (P. aeruginosa) CCARM 2180 [3]: 40 µM
MIC MRAB (A. baumannii) ATCC BAA 1605 ([4]; ATCC BAA 1605, 18 h): 2.5 µM
MIC MRSA (S. aureus) KCCM 40510 ([5]; KCCM 40510, 18 h): 10 µM
MIC VRE (E. faecalis) ATCC 51575 ([6]; ATCC 51575, 18 h): 10 µM
